# Tested on: HIV-1 (NL4-3 RLuc reporter virus in MT-2 cells)
# Assay: Inhibition of HIV-1 replication, MT-2 spreading infection assay
# Type: cell-based
# Conditions: Human immunodeficiency virus 1, NL43, MT2, 96 h, read-out: HIV activity (μM)
# Method: Inhibition of HIV-1 viral replication was assayed in a spreading infection using MT-2 cells and NL4-3 RLuc reporter virus. For dose-response curves, compounds were initially diluted with DMSO to 100-fold the starting concentration in a 96-well plate and subjected to a series of 3-fold dilutions in DMSO for a total of eight or nine dilutions. If a single compound concentration was tested, the compound was diluted to 100-fold the desired concentration in DMSO. Compounds were then diluted 50-fold with infection media prepared by diluting NL4-3 RLuc virus stock to 400 IU/100 ul with complete RPMI. Then, 100 ul of 50-fold-diluted compound was transferred to 20,000 MT-2 cells that were preceded in 96-well plates in 100 ul of complete RPMI for a final volume of 200 ul, followed by incubation at 37° C. for 96 h. The final MOI in infected plates was 0.02, and the final DMSO concentration in all wells was 1%. All assays were run with three replicates. For each replicate, one well received DMSO only, and one well received medium only for normalization and background correction. […] Plates were read on a luminescence plate reader (Synergy H1; BioTek Instruments, Inc.).
row,Compound,IC50 [µM]
1,"COc1cc2c(cc1OCc1ccccc1)C(C)CNC2/C=C/c1cc2c(cc1C)OCO2 (stereo not drawn) [Compound 12, 6-Benzyloxy-7-methoxy-4-methyl-1-[(E)-2-(6-methyl-1,3-benzodioxol-5-yl)vinyl]-1,2,3,4-tetrahydroisoquinoline]",1.4
2,"COc1cc2c(c(OC)c1OCc1ccccc1)CCNC2/C=C/c1cc2c(cc1C)OCO2 (stereo not drawn) [Compound 6, 6-benzyloxy-5,7-dimethoxy-1-[(E)-2-(6-methyl-1,3-benzodioxol-5-yl)vinyl]-1,2,3,4-tetrahydroisoquinoline]",0.37
3,COc1cc2c(cc1OCc1ccccc1)C(Cl)CNC2/C=C/c1cc2c(cc1C)OCO2 (stereo not drawn) [Compound 61],2.5
4,"CCC1Cc2cc(OCc3ccccc3)c(OC)cc2C(/C=C/c2cc3c(cc2C)OCO3)N1 (stereo not drawn) [Compound 24, 6-Benzyloxy-7-methoxy-3-ethyl-1-[(E)-2-(6-methyl-1,3-benzodioxol-5-yl)vinyl]-1,2,3,4-tetrahydroisoquinoline]",0.5
5,"COc1c(OCc2ccccc2)cc2c(c1OC)C(/C=C/c1cc3c(cc1C)OCO3)NCC2 (stereo not drawn) [Compound 10, 6-benzyloxy-7,8-dimethoxy-1-[(E)-2-(6-methyl-1,3-benzodioxol-5-yl)vinyl]-1,2,3,4-tetrahydroisoquinoline]",2.5
6,"COc1cc2c(cc1OCc1ccccc1)CCN(O)C2/C=C/c1cc2c(cc1C)OCO2 (stereo not drawn) [Compound 36, 6-benzyloxy-2-hydroxy-7-methoxy-1-[(E)-2-(6-methyl-1,3-benzodioxol-5-yl)vinyl]-3,4-dihydro-1H-isoquinoline]",0.053

# From patent US12024521B2, “Isoquinoline derivatives, methods of synthesis and uses thereof” (priority 2020, dated 2024)
